From US10792274B2, “Dehydroacetic acid (DHAA) and derivative for uses in treating cancer” (Emory University, priority 2016, dated 2020)
pKd: −log10 of the molar value. Entries after “also recorded” stand apart in the source; their conditions may differ.

Tests used:
[1] = chronic injection of acetoacetate or 3HB to nude mice; format: in vivo; conditions: chronic injection for 4 weeks
[2] = serum and tumor metabolite levels and body weight of xenograft mice; format: in vivo
[3] = tested on: NRAS Q61K-expressing HMCB cells; assay: HMCB xenograft in nude mice; format: in vivo; conditions: for BRAF-MEK1 binding in tumors / cell proliferation rates in tumors (Ki67 IHC staining) / phosphorylation of MEK1 and ERK1/2 (MEK-ERK activation) in tumors / xenograft tumor growth (growth rates, sizes, masses): single agent; for xenograft tumor growth (growth rates, sizes, masses): normal diet
[4] = tested on: BRAF V600E-expressing human melanoma A2058 cells; assay: A2058 xenograft in nude mice; format: in vivo
Description: Xenograft tumor growth and in nude mice inoculated with BRAF V600E-positive human melanoma A2058 fed with normal or high-fat diets followed by intraperitoneal injection with DHAA.

[5] = format: physicochemical
Experimental: (§1) To exclude potential effects of the lithium ion, a series of experiments were performed using a control salt lithium chloride.

[6] = tested on: BRAF V600E-expressing human melanoma A375 cells; assay: A375 xenograft in nude mice; format: in vivo; conditions: for BRAF V600E-MEK1 binding in tumors / cell proliferation rates in tumors (Ki67 IHC staining) / phosphorylation of MEK1 and ERK1/2 in tumors / xenograft tumor growth (growth rates, sizes, masses): single agent; for xenograft tumor growth (growth rates, sizes, masses): normal diet
BRAF V600D = BRAF V600D (Homo sapiens, UniProt P15056, V600D); assay: 14C-labeled acetoacetate binding assay
Experimental: (§2) BRAF wild type and mutant proteins were incubated with increasing concentrations of ^14C-labeled acetoacetate.
(§3) A series of radiometric metabolite-protein interaction analyses were performed using ^14C labeled acetoacetate incubated with purified BRAF variants in the presence and absence of DHAA.

BRAF V600R = BRAF V600R (Homo sapiens, UniProt P15056, V600R); assay: 14C-labeled acetoacetate binding assay
Experimental: as §2, §3

[7] = biological target: T1, V600E mutant of an active, truncated C-terminal domain of BRAF (tBRAF, 416-766 aa) (Homo sapiens, UniProt P15056, V600E); assay: 14C-labeled acetoacetate binding assay
T1 construct: truncated C-terminal domain of BRAF (tBRAF, 416-766 aa)
Experimental: as §3

[8] = tested on: control V600A mutant or other clinically reported BRAF mutants including K507E, N581S, D594N, L597Q, K601E, and S616F; assay: 14C-labeled acetoacetate binding assay, other BRAF mutants
Experimental: as §2, §3

BRAF V600R-MEK1 binding = BRAF V600R-MEK1 binding (Homo sapiens, UniProt P15056, V600R); assay: MEK1 binding to BRAF mutants; format: biochemical
[9] = tested on: Me1-ST cells expressing BRAF V600E; assay: immortalized melanocyte treatment: proliferation, MEK-ERK activation, BRAF-MEK1 binding; format: cell-based; conditions: DHAA plus acetoacetate rescue treatment
[10] = tested on: other BRAF mutants-MEK1 binding; assay: MEK1 binding to BRAF mutants; format: biochemical
BRAF V600E [11] = biological target: T2, BRAF V600E (Homo sapiens, UniProt P15056, V600E); assay: BRAF V600E kinase activity (Vmax and Km), MEK1 as substrate; format: biochemical; conditions: acetoacetate binding; MEK1 as substrate
Experimental: (§4) Whether DHAA inhibits BRAF V600E directly was examined. […] In contrast, DHAA had no effect on BRAF WT-MEK1 binding or MEK1 phosphorylation in a control experiment using purified BRAF WT incubated with MEK1 in the presence of acetoacetate (FIG. 4I left panel). […] This is physiologically consistent with the acetoacetate levels determined as approximately 300 μM in stable HMGCL knockdown A375 and A2058 cells.

FLAG-tagged BRAF V600E = biological target: T3, FLAG-tagged BRAF V600E (Homo sapiens, UniProt P15056, V600E); assay: cellular thermal shift assay, lysates of transfected 293T cells; format: binding; conditions: 400 μM
T3 construct: FLAG; expressed in transfected cells; host or cells: 293T cells (lysates)
Description: (§5) Whether functional inhibition of acetoacetate would attenuate BRAF V600E tumor growth was examined. Dehydroacetic acid (DHAA) (FIG. 4A) is an inhibitory homologue of acetoacetate.

BRAF V600E-MEK1 binding = BRAF V600E-MEK1 binding (Homo sapiens, UniProt P15056, V600E); assay: cell-free in vitro coupled protein-protein binding and kinase assay; format: biochemical; conditions: substance alone
Experimental: as §4

BRAF V600D-MEK1 binding = BRAF V600D-MEK1 binding (Homo sapiens, UniProt P15056, V600D); assay: MEK1 binding to BRAF mutants; format: biochemical
BRAF V600E [12] = biological target: T2, BRAF V600E; assay: 14C-labeled acetoacetate binding assay (radiometric metabolite-protein interaction)
Experimental: as §2, §3

[13] = tested on: diverse BRAF V600E-expressing cells; assay: DHAA with or without acetoacetate treatment of cells; format: cell-based; conditions: DHAA plus acetoacetate treatment
[14] = tested on: diverse BRAF V600E positive or negative human melanoma cells; assay: control treatments of melanoma cells; format: cell-based
Experimental: as §1
In addition, similar studies were performed to exclude possible effects from the potential degradation product of acetoacetate, acetone.

BRAF V600E [15] = biological target: T2, BRAF V600E; assay: thermal melt shift assay, purified recombinant protein; format: binding
Experimental: Arrows in the panel indicate melting temperatures at 0 μM (left) and 400 μM (right).
as §5

[16] = DHAA plus intraperitoneal acetoacetate
[17] = increasing concentrations of 14C-labeled acetoacetate
[18] = acetoacetate injection in mice treated with fluvastatin, niacin or fenofibrate

Sequence of BRAF V600E-MEK1 binding (P15056 whole entry V600E): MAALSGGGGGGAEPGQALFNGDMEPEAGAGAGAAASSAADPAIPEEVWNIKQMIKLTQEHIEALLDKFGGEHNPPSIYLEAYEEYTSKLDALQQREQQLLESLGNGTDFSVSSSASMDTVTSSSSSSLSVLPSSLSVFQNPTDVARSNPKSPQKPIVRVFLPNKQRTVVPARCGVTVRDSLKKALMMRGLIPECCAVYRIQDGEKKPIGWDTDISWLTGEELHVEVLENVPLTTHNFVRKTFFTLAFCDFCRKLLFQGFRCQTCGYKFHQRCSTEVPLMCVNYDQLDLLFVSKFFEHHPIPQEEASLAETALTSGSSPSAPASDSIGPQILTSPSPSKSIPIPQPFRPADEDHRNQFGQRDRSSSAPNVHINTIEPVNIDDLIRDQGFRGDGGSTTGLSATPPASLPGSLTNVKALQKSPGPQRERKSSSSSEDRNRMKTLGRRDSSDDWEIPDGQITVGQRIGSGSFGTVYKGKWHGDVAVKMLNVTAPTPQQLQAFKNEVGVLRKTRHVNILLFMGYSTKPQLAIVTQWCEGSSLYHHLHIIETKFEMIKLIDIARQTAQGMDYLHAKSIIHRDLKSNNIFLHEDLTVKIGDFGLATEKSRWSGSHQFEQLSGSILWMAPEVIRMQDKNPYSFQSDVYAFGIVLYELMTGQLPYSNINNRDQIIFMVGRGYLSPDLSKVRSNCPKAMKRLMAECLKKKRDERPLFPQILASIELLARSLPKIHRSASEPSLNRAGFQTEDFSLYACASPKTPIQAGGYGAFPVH
T2 sequence (P15056 whole entry V600E): as above
Sequence of BRAF V600R (P15056 whole entry V600R): as the sequence (P15056 whole entry V600E) above, with E600R counted along it
Sequence of BRAF V600D (P15056 whole entry V600D): as the sequence (P15056 whole entry V600E) above, with E600D counted along it
Sequence of BRAF V600R-MEK1 binding (P15056 whole entry V600R): as the sequence (P15056 whole entry V600E) above, with E600R counted along it
Sequence of BRAF V600R-MEK1 binding (Q02750 whole entry partner): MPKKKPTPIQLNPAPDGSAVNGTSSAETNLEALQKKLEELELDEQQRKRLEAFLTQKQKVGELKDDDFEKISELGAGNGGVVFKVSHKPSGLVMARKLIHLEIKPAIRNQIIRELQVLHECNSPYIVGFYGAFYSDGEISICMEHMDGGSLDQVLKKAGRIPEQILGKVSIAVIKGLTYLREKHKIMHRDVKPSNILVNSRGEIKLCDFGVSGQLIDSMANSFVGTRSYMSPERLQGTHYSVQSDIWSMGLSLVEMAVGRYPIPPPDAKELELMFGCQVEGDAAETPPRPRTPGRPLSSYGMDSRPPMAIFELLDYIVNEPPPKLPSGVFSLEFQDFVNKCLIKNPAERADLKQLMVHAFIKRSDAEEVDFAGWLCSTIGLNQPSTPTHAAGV
T3 sequence (P15056 whole entry V600E): as the sequence (P15056 whole entry V600E) above
T1 sequence (P15056 416-766 V600E): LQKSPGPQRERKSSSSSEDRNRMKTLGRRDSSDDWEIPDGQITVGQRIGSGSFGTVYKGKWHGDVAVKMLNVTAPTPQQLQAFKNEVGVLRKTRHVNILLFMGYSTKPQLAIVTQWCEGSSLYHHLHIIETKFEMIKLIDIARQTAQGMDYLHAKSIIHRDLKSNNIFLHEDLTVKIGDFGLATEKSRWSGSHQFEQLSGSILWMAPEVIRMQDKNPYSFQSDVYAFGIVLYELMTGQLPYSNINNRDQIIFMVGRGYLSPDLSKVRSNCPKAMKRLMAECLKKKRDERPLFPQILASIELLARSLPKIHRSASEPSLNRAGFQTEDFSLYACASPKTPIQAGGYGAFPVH
Sequence of BRAF V600D-MEK1 binding (P15056 whole entry V600D): as the sequence (P15056 whole entry V600E) above, with E600D counted along it
Sequence of BRAF V600D-MEK1 binding (Q02750 whole entry partner): as the sequence (Q02750 whole entry partner) above

SMILES: C[C@@H](O)CC(=O)O [3HB, D-β-hydroxybutyrate]
- acetoacetate or 3HB levels in urine [1]: did not alter
- serum 3HB levels [1]: increased 3HB
- serum levels of 3HB (β-hydroxybutyrate) ([2]; effect of treatment): increased serum levels of β-hydroxybutyrate
- BRAF-MEK1 binding in tumors [3]: did not affect
- cell proliferation rates in tumors (Ki67 IHC staining) [3]: did not affect
- phosphorylation of MEK1 and ERK1/2 (MEK-ERK activation) in tumors [3]: did not affect
- xenograft tumor growth (growth rates, sizes, masses) [3]: had no effect on growth rates or masses of tumor xenografts

SMILES: CC(=O)CC(=O)O [acetoacetate]
- acetoacetate or 3HB levels in urine [1]: did not alter
- serum acetoacetate levels [1]: increased serum acetoacetate
- rescue by acetoacetate injection of fenofibrate-decreased tumor growth ([4]; intraperitoneal acetoacetate plus fenofibrate): effectively rescued the decreased tumor growth
- reversal by acetoacetate injection of hypolipidemic agents' inhibitory effects (MEK1/ERK1/2 phosphorylation, BRAF V600E-MEK1 association, Ki67) ([4]; tumors): effectively reversed
- stability of anion form relative to acid form [5]: approximately 55 times
- reversal by acetoacetate injection of DHAA inhibition of BRAF V600E-MEK1 binding in tumors [6, 16]: did not reverse
- reversal by acetoacetate injection of DHAA inhibition of MEK1 and ERK1/2 phosphorylation in tumors [6, 16]: did not reverse
- reversal by acetoacetate injection of DHAA inhibition of cell proliferation rates (Ki67) in tumors [6, 16]: did not reverse
- reversal by acetoacetate injection of fluvastatin- or niacin-attenuated tumor growth ([6]; intraperitoneal acetoacetate plus oral fluvastatin or niacin): could be reversed
- BRAF V600E-MEK1 binding in tumors [6]: enhanced BRAF V600E-MEK1 association
- cell proliferation rates in tumors (Ki67 IHC staining) [6]: enhanced cell proliferation rates
- phosphorylation of MEK1 and ERK1/2 in tumors [6]: enhanced phosphorylation of MEK1 and ERK1/2
- xenograft tumor growth (growth rates, sizes, masses) [6]: increased growth rates and masses of xenograft tumors; also recorded: increased tumor sizes; also recorded: selectively promotes
- reversal by acetoacetate injection of hypolipidemic agents' inhibitory effects (MEK1/ERK1/2 phosphorylation, BRAF V600E-MEK1 association, Ki67) ([6]; tumors): effectively reversed
- binding of 14C-labeled acetoacetate (BRAF V600D): bound
- pKd (BRAF V600D; [17]): ~4.03
- binding of 14C-labeled acetoacetate (BRAF V600R): bound
- pKd (BRAF V600R; [17]): ~3.95
- binding of 14C-labeled acetoacetate [7]: specifically bound
- binding of 14C-labeled acetoacetate [8]: but not to a negative control mutant V600A or to other clinically reported BRAF mutants
- promotion of MEK1 binding to BRAF V600R with increased MEK1 phosphorylation (BRAF V600R-MEK1 binding): promoted MEK1 binding
- reversal by acetoacetate of the inhibitory effect of DHAA on cell proliferation [9]: did not reverse
- serum levels of acetoacetate ([2]; acetoacetate injection in DHAA-treated A375 xenograft mice): increased serum levels of acetoacetate
- serum 3HB levels [2, 18]: did not affect 3HB levels
- serum acetoacetate levels [2, 18]: rescued the decreased serum acetoacetate levels
- serum levels of 3HB (β-hydroxybutyrate) ([2]; effect of treatment): did not affect serum levels of 3HB
- serum levels of acetoacetate ([2]; effect of treatment): increased serum levels of acetoacetate
- promotion of MEK1 binding to other BRAF mutants [10]: but not to other BRAF mutants
- Km of BRAF V600E (BRAF V600E [11]): slightly decreased Km
- Vmax of BRAF V600E (BRAF V600E [11]): increased Vmax
- binding in cellular thermal shift assay (FLAG-tagged BRAF V600E): bound only to BRAF V600E
- effect of acetoacetate injection on tumor growth potential ([3]; intraperitoneal acetoacetate, fenofibrate study): had no effect on tumor growth potential
- BRAF-MEK1 binding in tumors [3]: did not affect
- cell proliferation rates in tumors (Ki67 IHC staining) [3]: did not affect
- phosphorylation of MEK1 and ERK1/2 (MEK-ERK activation) in tumors [3]: did not affect
- xenograft tumor growth (growth rates, sizes, masses) [3]: had no effect on growth rates or masses of tumor xenografts
- promotion of association between purified BRAF V600E and MEK1 (BRAF V600E-MEK1 binding): promoted MEK1 binding
- promotion of MEK1 binding to BRAF V600D with increased MEK1 phosphorylation (BRAF V600D-MEK1 binding): promoted MEK1 binding
- pKd (BRAF V600E [12]; [17]): ~4.04
- binding of 14C-labeled acetoacetate (BRAF V600E [12]; purified BRAF V600E): binds to purified BRAF V600E; also recorded: specifically bound
- reversal by acetoacetate of DHAA-decreased MEK-ERK activation [13]: could not be reversed
- reversal by acetoacetate of DHAA-reduced cell proliferation [13]: could not be reversed

SMILES: CC(C)=O [acetone]
- BRAF V600E-MEK1 binding [14]: did not affect
- cell proliferation rates [14]: did not affect
- phosphorylation levels of MEK1 or ERK1/2 [14]: did not affect
- promotion of association between purified BRAF V600E and MEK1 (BRAF V600E-MEK1 binding): did not
- binding in thermal melt shift assay (BRAF V600E [15]): did not bind

SMILES: [Cl-].[Li+] [lithium chloride]
- BRAF V600E-MEK1 binding in tumors [6]: nor did it affect
- cell proliferation rates in tumors (Ki67 IHC staining) [6]: nor did it affect
- xenograft tumor growth (growth rates, sizes, masses) [6]: did not affect tumor growth potential
- serum cholesterol levels ([2]; effect of treatment): nor did it affect
- serum levels of 3HB (β-hydroxybutyrate) ([2]; effect of treatment): nor did it affect
- BRAF V600E-MEK1 binding [14]: did not affect
- cell proliferation rates [14]: did not affect
- phosphorylation levels of MEK1 or ERK1/2 [14]: did not affect
- promotion of association between purified BRAF V600E and MEK1 (BRAF V600E-MEK1 binding): did not
- binding in thermal melt shift assay (BRAF V600E [15]): did not bind

SMILES: O=C(O)c1cccnc1 [niacin]
- BRAF V600E-MEK1 binding in tumors [6]: decreased BRAF V600E-MEK1 association
- cell proliferation rates in tumors (Ki67 IHC staining) [6]: reduced cell proliferation rates
- phosphorylation of MEK1 and ERK1/2 in tumors [6]: decreased phosphorylation of MEK1 and ERK1/2
- xenograft tumor growth (growth rates, sizes, masses) [6]: effectively attenuated tumor growth potential; also recorded: reduce BRAF V600E tumor growth
- serum cholesterol levels ([2]; effect of treatment): marginally decreased serum cholesterol levels
- serum levels of acetoacetate ([2]; effect of treatment): reduced serum levels of acetoacetate; also recorded: decrease serum acetoacetate levels
